Reference: US11173160B2 (UNIVERSITY OF PITTSBURGH—OF THE COMMONWEALTH SYSTEM OF …, priority 2019, dated 2021)
pEC50, pIC50: −log10 of the molar value. “Also recorded” adds a separate entry of the source. Where two headings read alike, the source gives them in different places.

Experiments:
PKBα = PKBα (Homo sapiens, UniProt P31749); details: cited from earlier work
[1] = tested on: SF8628 intracranial xenografts; experiment: SF8628 orthotopic xenograft model; assay type: in vivo, mice; details: for KI-67 staining (proliferation marker): 20 mg/kg, vs vehicle
Experimental: (§1) All animal procedures were carried out ethically according to animal user protocols approved by Institutional Animal Care Committee (IACUC). 4-6 week-old non-obese diabetic severe combined immune deficiency male or female mice (NOD-SCID-Prkdc^scid) were injected with 1×10^5 SU-DIPG-13p cells or 1×10^5 SF8628 DIPG cells. Cells were re-suspended in 2 μl of PBS and injected into the pons/midbrain using a stereotactic frame (Stoelting) and automated cell injector (Stoelting) with cells delivered over 4 minutes. Coordinates were as follows from the Lambda suture (x=0.8 mm, y=−0.8 mm, z=−5.0 mm). […] Mice were treated for two cycles (5 days on, with two days off per cycle). Mice were sacrificed at sign of neurological duress and brains were extracted and fixed in 4% PFA.
(§2) Also, the present disclosure used two established cell lines derived from transgenic mouse models of DIPG. Both lines are p53 null and express PDGFB, differing only in their H3.3 mutation status.
In a first DIPG mouse model, NOD-SCID gamma mice were injected with 2×10^5 SF8628 cells in the midbrain.
(§3) For each cycle, the compounds were administered 20 mg/kg/day for 5 days, followed with 2 days of rest period. Each mice received 2 cycles of treatment.

[2] = cited from earlier work
[3] = cited from earlier work; remark: listed apart in the source
[4] = tested on: DIPG-IV cells expressing MYC S62D; experiment: EC50 of TG02 in DIPG-IV cells expressing MYC S62D; assay type: cell-based, human; details: MYC S62D vs empty vector control
Experimental: (§4) Direct cell counts were performed using the Countess II FL Automated Cell Counter (ThermoFisher Scientific). Alamar blue viability (ThermoFisher Scientific) and the 5-bromo-2′-deoxyuridine (BrdU) incorporated cell proliferation assay (Cell Signaling Technology Cat #6813) were performed using the manufacturer's standard protocol. EC50 curve analysis was performed using raw fluorescent Alamar blue values that were inputted into PRISM 7.0. Drug concentrations were log 10 transformed and values normalized to percent viability with respect to vehicle treated cells. EC50 values were interpolated from a log inhibitor vs. normalized response with variable slope using a least square fit model.

[5] = tested on: DIPG-IV cells overexpressing ERK5 and constitutively active ERK5; experiment: EC50 of TG02 in DIPG-IV cells expressing ERK5-HA or ERK5-HA T733E; assay type: cell-based, human
Experimental: as §4

CYP1A2 = CYP1A2 (Homo sapiens, UniProt P05177); details: cited from earlier work
Sequence of CYP1A2 (P05177 whole entry): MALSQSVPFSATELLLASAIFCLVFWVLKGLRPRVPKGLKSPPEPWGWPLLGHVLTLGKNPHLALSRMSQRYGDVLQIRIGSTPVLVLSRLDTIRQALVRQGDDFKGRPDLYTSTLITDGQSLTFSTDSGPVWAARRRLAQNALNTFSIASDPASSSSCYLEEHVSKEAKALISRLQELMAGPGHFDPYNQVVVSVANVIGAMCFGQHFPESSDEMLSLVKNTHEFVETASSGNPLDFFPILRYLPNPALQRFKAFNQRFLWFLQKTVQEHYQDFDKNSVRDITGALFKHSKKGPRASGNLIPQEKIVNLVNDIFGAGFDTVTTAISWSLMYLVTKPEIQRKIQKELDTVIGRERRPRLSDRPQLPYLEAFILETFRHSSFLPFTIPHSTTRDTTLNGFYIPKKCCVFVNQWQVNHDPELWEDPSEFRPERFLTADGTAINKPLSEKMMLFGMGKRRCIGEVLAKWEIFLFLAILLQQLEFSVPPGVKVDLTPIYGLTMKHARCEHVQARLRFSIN

InsR = InsR (Homo sapiens, UniProt P06213); details: cited from earlier work
tumor cells (DIPG) = experiment: cell viability with TG02 and radiation (cell count/trypan blue); assay type: cell-based; details: day 5
Experimental: Cells were plated on day 1 (1×10^6). […] On day 5, cell viability were measured by cell count/trypan blue assay on thermo cell countess machines. For fractionated rad, additional 1.8 Gy doses were given on days 3 and 4. […] Therefore, the combination of TG02 and radiation can provide significant, synergistic benefits for treating DIPG as compared to when TG02 and radiation are administered alone.

Aurora B = Aurora B (Homo sapiens, UniProt Q96GD4); details: cited from earlier work
Sequence of Aurora B (Q96GD4 whole entry): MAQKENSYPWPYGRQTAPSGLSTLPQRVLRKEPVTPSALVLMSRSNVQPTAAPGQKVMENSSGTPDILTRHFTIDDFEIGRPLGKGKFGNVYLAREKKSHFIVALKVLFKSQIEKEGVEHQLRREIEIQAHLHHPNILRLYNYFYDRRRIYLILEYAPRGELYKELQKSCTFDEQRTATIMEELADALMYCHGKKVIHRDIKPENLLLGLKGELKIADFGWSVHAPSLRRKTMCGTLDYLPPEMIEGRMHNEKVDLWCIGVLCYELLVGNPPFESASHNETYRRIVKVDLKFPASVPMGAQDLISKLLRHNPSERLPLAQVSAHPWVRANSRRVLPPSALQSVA

[6] = cited from earlier work; remark: listed apart in the source
ASK1 = ASK1 (Homo sapiens, UniProt Q99683); details: cited from earlier work
Sequence of ASK1 (Q99683 whole entry): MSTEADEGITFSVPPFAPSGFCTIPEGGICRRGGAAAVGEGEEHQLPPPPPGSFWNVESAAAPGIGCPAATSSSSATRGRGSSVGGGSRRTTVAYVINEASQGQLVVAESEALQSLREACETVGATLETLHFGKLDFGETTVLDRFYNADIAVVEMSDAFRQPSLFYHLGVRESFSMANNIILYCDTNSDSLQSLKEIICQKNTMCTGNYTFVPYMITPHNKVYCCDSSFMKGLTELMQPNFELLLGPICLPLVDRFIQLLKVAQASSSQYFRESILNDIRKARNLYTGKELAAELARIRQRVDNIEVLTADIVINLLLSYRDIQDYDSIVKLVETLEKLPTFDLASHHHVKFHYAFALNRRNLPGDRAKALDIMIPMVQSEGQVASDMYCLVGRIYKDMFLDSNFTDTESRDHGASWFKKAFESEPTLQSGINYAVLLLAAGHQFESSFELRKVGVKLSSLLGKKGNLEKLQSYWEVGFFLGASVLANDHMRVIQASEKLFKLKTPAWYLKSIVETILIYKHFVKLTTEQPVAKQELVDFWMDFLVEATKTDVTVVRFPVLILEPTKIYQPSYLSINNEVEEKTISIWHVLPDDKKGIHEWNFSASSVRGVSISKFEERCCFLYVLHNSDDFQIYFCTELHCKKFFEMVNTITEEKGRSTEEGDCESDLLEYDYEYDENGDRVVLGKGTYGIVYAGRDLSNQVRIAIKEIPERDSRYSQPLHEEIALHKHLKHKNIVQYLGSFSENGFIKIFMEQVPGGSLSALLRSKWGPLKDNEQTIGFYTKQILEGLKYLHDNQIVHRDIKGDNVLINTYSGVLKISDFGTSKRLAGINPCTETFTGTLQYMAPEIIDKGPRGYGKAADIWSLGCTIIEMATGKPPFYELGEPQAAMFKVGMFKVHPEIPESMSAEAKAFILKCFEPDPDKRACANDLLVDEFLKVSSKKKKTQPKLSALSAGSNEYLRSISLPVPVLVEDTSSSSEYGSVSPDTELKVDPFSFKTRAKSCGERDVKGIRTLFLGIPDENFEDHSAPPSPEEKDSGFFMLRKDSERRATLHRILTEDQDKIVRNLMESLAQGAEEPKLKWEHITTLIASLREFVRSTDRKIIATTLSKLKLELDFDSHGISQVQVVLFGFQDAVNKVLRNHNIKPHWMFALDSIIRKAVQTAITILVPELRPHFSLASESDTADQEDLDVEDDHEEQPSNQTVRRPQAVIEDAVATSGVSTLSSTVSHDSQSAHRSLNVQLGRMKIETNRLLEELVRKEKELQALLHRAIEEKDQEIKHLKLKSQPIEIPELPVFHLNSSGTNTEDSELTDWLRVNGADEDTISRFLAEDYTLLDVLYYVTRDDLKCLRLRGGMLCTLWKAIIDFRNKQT

CDK6 = CDK6 (Homo sapiens, UniProt Q00534); details: cited from earlier work
Sequence of CDK6 (Q00534 whole entry): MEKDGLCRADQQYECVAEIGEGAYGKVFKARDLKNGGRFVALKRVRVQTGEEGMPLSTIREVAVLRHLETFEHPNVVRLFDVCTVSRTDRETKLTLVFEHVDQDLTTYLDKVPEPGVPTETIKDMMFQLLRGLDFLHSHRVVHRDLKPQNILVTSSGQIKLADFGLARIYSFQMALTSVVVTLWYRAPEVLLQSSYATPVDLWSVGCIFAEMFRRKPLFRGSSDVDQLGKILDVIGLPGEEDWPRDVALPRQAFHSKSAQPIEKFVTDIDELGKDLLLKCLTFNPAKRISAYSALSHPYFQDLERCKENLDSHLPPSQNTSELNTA
Sequence of CDK6 (P30281 whole entry partner): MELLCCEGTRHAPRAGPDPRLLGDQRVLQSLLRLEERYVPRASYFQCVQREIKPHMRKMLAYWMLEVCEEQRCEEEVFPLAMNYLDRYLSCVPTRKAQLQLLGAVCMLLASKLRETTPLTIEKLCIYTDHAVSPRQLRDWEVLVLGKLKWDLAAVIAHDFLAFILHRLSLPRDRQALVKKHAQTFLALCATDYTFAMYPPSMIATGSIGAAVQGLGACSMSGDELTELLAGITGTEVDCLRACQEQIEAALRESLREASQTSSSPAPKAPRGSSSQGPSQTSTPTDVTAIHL

KDR = KDR (Homo sapiens, UniProt P35968); details: cited from earlier work
MYCN in DIPG-13p cells = experiment: MYCN transcript (qRT-PCR) and protein (Western blot); assay type: cell-based, human; details: DIPG-13p cells (MYCN amplification)
Experimental: FIG. 14E provides Western blot confirming MYCN protein levels decrease in DIPG-13p cells from FIG. 14E.
Total RNA isolation was performed using an RNA extraction kit according to the manufacturer's instructions (RNeasy kit, Qiagen). cDNA was synthesized from 100 ng of total RNA using the Quantitect RT kit which included DNAse treatment (Qiagen). Quantitative real-time PCR was performed on 10 ng of cDNA template in a final volume of 20 μl using the Chromo4 Real Time PCR detector (MJ Research, a Division of Bio-Rad Laboratories Ltd) using SYBR green fluorescence. RT-PCR data was analyzed using Opticon Monitor 3.1.3 analysis software. Data analysis was done using the delta CT method with HPRT1 as a reference/control gene. Specific Primers are available in Table 4.

MAPKAP-K2 = MAPKAP-K2 (Homo sapiens, UniProt P49137); details: cited from earlier work
FAK = FAK (Homo sapiens, UniProt Q05397); details: cited from earlier work
Sequence of FAK (Q05397 whole entry): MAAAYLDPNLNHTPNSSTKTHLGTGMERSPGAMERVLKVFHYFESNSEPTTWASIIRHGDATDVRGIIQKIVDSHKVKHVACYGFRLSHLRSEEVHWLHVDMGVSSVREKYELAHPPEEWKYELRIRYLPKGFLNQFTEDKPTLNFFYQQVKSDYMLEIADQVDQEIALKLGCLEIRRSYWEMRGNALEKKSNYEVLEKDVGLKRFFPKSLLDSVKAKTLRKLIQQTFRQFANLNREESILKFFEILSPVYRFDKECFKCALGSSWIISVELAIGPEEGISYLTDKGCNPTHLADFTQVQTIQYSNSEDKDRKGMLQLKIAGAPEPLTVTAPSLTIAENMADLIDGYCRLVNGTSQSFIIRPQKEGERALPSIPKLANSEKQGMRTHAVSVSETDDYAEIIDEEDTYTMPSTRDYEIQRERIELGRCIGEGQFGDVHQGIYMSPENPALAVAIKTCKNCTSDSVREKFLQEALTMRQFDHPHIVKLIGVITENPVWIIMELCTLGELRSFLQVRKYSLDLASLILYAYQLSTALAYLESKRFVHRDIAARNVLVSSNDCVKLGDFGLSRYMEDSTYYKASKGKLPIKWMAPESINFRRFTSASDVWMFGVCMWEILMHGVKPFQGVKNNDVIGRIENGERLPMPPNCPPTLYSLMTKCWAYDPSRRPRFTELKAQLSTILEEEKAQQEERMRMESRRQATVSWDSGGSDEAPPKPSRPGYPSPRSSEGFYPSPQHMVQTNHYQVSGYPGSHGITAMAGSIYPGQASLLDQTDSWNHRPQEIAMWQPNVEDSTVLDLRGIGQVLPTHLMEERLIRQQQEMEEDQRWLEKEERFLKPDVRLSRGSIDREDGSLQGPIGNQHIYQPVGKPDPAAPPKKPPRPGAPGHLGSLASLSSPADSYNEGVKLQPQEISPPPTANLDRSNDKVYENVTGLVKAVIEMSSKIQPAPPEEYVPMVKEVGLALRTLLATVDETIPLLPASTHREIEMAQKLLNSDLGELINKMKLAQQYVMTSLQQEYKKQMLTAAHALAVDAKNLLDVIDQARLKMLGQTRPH

PRAK = PRAK (Homo sapiens, UniProt Q8IW41); details: cited from earlier work
Fyn = Fyn (Homo sapiens, UniProt P06241); details: Source Millipore; 10-point titration in duplicates, done once; cited from earlier work
Sequence of Fyn (P06241 whole entry): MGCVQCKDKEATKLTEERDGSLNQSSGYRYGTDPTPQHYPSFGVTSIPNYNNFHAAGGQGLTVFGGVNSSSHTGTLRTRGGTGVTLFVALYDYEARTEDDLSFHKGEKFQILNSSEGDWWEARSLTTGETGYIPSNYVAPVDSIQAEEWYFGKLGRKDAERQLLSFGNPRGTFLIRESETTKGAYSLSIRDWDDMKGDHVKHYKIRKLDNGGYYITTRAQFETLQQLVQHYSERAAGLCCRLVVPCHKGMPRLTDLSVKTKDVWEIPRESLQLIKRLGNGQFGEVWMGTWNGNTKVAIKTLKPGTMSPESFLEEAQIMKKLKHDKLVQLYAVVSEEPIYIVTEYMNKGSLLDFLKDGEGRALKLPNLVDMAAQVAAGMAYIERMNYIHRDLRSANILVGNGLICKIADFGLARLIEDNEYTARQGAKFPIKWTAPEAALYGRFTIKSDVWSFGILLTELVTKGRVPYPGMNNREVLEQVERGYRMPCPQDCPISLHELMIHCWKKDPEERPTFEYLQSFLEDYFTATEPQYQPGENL

[7] = tested on: DIPG-13p orthotopic xenografts; experiment: DIPG-13p orthotopic xenograft model; assay type: in vivo, mice; details: for survival vs vehicle: 20 mg/kg/day for 5 days, 2 days rest
Experimental: as §1, §2
In a second DIPG mouse model, mice were injected with 1×10^5 DIPG13p cells in the midbrain of NOD-SCID gamma mice.
as §3

[8] = human pharmacokinetics of TG02 as a single agent
JAK1 = JAK1 (Homo sapiens, UniProt P23458); details: Source Invitrogen; 10-point titration in duplicates, done once; cited from earlier work
[9] = 2 cycles, listed as TG02 obtained from Adastra Pharmaceuticals

Sequence of PKBα (P31749 whole entry, species assumed): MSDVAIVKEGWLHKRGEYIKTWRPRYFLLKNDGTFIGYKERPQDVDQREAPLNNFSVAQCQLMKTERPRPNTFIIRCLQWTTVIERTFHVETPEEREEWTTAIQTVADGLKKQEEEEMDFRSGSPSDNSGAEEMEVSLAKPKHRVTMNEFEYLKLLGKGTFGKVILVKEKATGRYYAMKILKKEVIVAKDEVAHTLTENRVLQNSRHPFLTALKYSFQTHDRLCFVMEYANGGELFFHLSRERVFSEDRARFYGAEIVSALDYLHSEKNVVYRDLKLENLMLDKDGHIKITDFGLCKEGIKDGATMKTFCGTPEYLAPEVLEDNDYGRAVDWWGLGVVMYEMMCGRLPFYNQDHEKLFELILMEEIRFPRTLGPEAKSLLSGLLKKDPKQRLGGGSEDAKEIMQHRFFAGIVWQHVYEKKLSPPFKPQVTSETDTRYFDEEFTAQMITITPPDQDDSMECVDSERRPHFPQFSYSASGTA

For `CN1C/C=C/CCOc2cccc(c2)-c2ccnc(n2)Nc2cccc(c2)C1` [TG02, (16E)-14-methyl-20-oxa-5,7,14,27-tetraazatetracyclo[19.3.1.12,6.18,12]heptacosa-1(25),2(27),3,5,8(26),9,11,16,21,23-decaene], the “inhibition at 100 nm” value (PKBα) is given as “less than 50%”, the “KI-67 staining (proliferation marker)” value ([1]; 2 cycles) is given as “reduced KI-67 staining” and the “KI-67 staining (proliferation marker)” value [1, 9] is given as “significantly reduced KI67 expression; also recorded: significantly reduced K167 expression”. For the same molecule, the survival vs vehicle ([1]; 20 mg/kg/day for 5 days, 2 days rest, 2 cycles) was “statistically significant increased median survival”, the median survival ([1]; TG02 20 mg/kg, 2 cycles of 5 days on 2 days off, vehicle 33 days) was 59 days and the “extension of median survival time” value ([1]; mice intracranially engrafted with DIPG cells) was “nearly two-fold”. The “peak concentration in plasma” value ([2]; adults, single dose of 200 mg) was 4,000 ng/mL, the “Cmax and AUC0-t dose dependence” value ([2]; doses between 10 and 200 mg) was “dose-proportional increase” and the t1/2 ([2]; in vivo) was “approximately 18 hrs”. The “inhibition at 100 nm” value [3] was “less than 50%”, the “resistance to TG02” value [4] was “promoted resistance to TG02” and the pEC50 ([5]; Homo sapiens, read-out: EC50 to treatment with TG02, overexpression of ERK5 and constitutively active ERK in DIPG-IV cells) was less than 6.00. The “cleaved Caspase 3/7 levels” value ([5]; TG02 100 nM, ERK5-HA or ERK5-HA T733E vs empty vector) was “reduced cleaved Caspase 3/7 levels”, the “substrate of CYP1A2” value (CYP1A2) was “substrate” and the “inhibition at 100 nm” value (InsR) was “less than 50%”. For the same molecule, the “tumor cell viability, TG02 alone” value (tumor cells (DIPG); vehicle control about 100%) was 50%, the “tumor cell viability, TG02 and radiation” value (tumor cells (DIPG); radiation 3 fractions of 1.8 Gy) was “about 25%” and the “inhibition at 100 nm” value (Aurora B) was “less than 50%”. For the same molecule, the “inhibition at 100 nm” value [6] was “less than 50%”, the “inhibition at 100 nm” value (ASK1) was “less than 50%” and the “inhibition at 100 nm” value (CDK6) was “less than 50%”. For the same molecule, the “inhibition at 100 nm” value (KDR) was “less than 50%”, the “MYCN protein and transcript levels” value (MYCN in DIPG-13p cells) was “MYCN protein and transcriptional down-regulation” and the “inhibition at 100 nm” value (MAPKAP-K2) was “less than 50%”. The “inhibition at 100 nm” value (FAK) was “less than 50%”, the “inhibition at 100 nm” value (PRAK) was “less than 50%” and the pIC50 (Fyn) was 7.82. For the same molecule, the “K167 expression (proliferation marker)” value ([7]; 20 mg/kg, 2 cycles, vs vehicle) was “significantly reduced K167 expression”, the survival vs vehicle ([7]; 2 cycles) was “statistically significant increased median survival” and the survival vs vehicle [7, 9] was “extended survival”. The median survival ([7]; TG02 20 mg/kg, 2 cycles of 5 days on 2 days off, vehicle 22.5 days) was 40 days, the “peak concentration in plasma” value ([8]; adults, single dose of 200 mg, equivalent) was 11,000 nM and the “Cmax in adults over in vitro IC50 in patient-derived DIPG cell lines” value ([8]; in vivo) was roughly 2 logs. For the same molecule, the pIC50 (JAK1) was 7.23.
